What all share (assay type): biochemical
Test [1] concerns the target PI3Kα (p110α/p85α)(h) (Homo sapiens, UniProt P42336). The experiment in a line: Assay for phosphatidylinositol 3-kinase alpha (PI3Kα) activity, PI3K-HTRF kit. The settings on record: TR-FRET; enzyme 0.3625 μg/ml, 10 μM PIP2, 10 μM ATP. Here is the method:
[The source words this procedure for another target and says it was used here with some conditions changed.] (§1) The compounds of the present invention were assayed for the activity of phosphatidylinositol 3-kinase gamma (PI3Kγ) by using a PI3K enzyme-homogenous time resolved fluorescence (PI3K-HTRF) kit, which is available from Upstate (Millipore Co, Billerica, Mass., USA).
(§2) Three kinds of buffer solutions including a phosphorylation reaction solution (a reaction buffer containing 40 mM MgCl2 which is available from Upstate was diluted 4 times and added with 5 mM DTT), a stop solution (STOP A and B solutions which are available from Upstate were mixed at a ratio of 3:1) and a fluorescence detection solution (Detection solutions A, B and C which are available from Upstate were mixed at a ratio of 1:1:18) were prepared. 1 mM of PIP2 substrate (phosphatidylinositol 4,5 biphosphate; Upstate), PI3Kγ (#14-558; Upstate) enzyme and 10 mM ATP (Sigma Aldrich Co., St. Louis, Mo., USA) were prepared. Each of PI3Kγ, 1 mM PIP2 and 10 mM ATP was diluted to 2.9 μg/ml (final reaction concentration: 1.45 μg/ml), 20 μM (final reaction concentration: 10 μM) and 40 μM (final reaction concentration: 10 μM), respectively. The buffer solution used for dilution and preparation process was the phosphorylation reaction solution. The stop solution was used for the termination of phosphorylation reaction, and the fluorescence detection solution was used for the detection of time-resolved fluorescence signals.
(§3) Each test sample was transferred to a 384 well low flange white flat bottom microplate (#3572, Corning Life Sciences, Lowell, Mass., USA) by using a multi 8-channel (Pipetman Neo multi 8×20, Gilson, Middleton, Wis., USA) to make a final phosphorylation reaction volume of 20 μl per each well. For the negative control, 5 μl of 14.4% DMSO and 10 μl of PIP2 substration solution were used, and 5 μl of 14.4% DMSO and 10 μl of PIP2/PI3Kγ mixed solution were used as the positive control. For the test group, 5 μl of a solution prepared by dissolving the compound obtained in Example in DMSO and 10 μl of PIP2/PI3Kγ mixed solution were used. Before the initiation of the phosphorylation reaction, sample compounds were pretreated with the enzyme for approximately 10 minutes, and then the phosphorylation reaction was induced by adding 5 μl of ATP. Since each of the test compound and ATP takes up 25% of the total volume, and PIP2 and PI3Kγ take up 50% of the total volume during the reaction, each solution was concentrated 4 and 2 times, respectively, before mixing the solutions. Subsequently, the test sample was gently shook for 3 minutes and subjected to a phosphorylation reaction for 90 minutes at room temperature, which was then added with 5 μl of the stop solution to terminate the phosphorylation reaction. In order to induce a time-resolved fluorescence reaction, 5 μl of the fluorescence detection solution was added to the sample. The fluorescence detection solution contains biotin-phosphatidylinositol 3,4,5-triphosphate (PIP3), streptavidin-labeled Allopycocyanin (APC) and europium-labeled Pleckstrin homology domain (the PIP3 binds to PH domain), and the time-resolved fluorescence reaction is induced by a series of reaction of PH domain and PIP3, and biotin and streptavidin. The sample was left to stand for 6 hours at room temperature, and the time-resolved fluorescence resonance energy transfer (TR-FRET) rate was measured (emission wavelength: 665 nm, 620 nm, excitation wavelength: 340 nm) by using a Flexstation3 Micro plate reader (Molecular Devices, USA). TR-FRET Rate and TR-Inhibition Rate were calculated based on Equations 1 and 2 below, and the results are expressed in IC50, which is the concentration of a compound that inhibits 50% of PI3Kγ activity in vitro. TR-FRET Rate=(665 nm emission wavelength/620 nm emission wavelength)×10000 <Equation 1> TR-FRET Inhibition Rate=[(TR-FRET Rate of Sample−TR-FRET Rate of Negative Control)/(TR-FRET Rate of Positive Control−TR-FRET Rate of Negative Control)]×100 <Equation 2>
(TR-FRET usually uses a lanthanide donor and a delayed reading to cut background.)

In test [2] the target is PI3K β (p110β/p85α)(h) (Homo sapiens, UniProt P42338). The experiment in a line: Assay for phosphatidylinositol 3-kinase beta (PI3Kβ) activity, PI3K-HTRF kit. The settings on record: TR-FRET; enzyme 0.725 μg/ml, 10 μM PIP2, 10 μM ATP. How it is done: [The source words this procedure for another target and says it was used here with some conditions changed.] as §1, §2
as §3, with “2> […]” for “2>”

The target in test [3] is PI3Kδ (p110δ/p85α)(h) (Homo sapiens, UniProt O00329). The experiment in a line: Assay for phosphatidylinositol 3-kinase delta (PI3Kδ) activity, PI3K-HTRF kit. The following applies: TR-FRET; enzyme 0.725 μg/ml, 10 μM PIP2, 10 μM ATP. How it is done: [The source words this procedure for another target and says it was used here with some conditions changed.] as §1, §2
as §3, with “2> […]” for “2>”

Test [4] deals with PI3Kγ (p120γ)(h) (Homo sapiens, UniProt P48736). The experiment in a line: Assay for phosphatidylinositol 3-kinase gamma (PI3Kγ) activity, PI3K-HTRF kit. The settings on record: TR-FRET; enzyme 1.45 μg/ml, 10 μM PIP2, 10 μM ATP. Here is the method:
as §1, §2, §3

Bounds are passed on as bounds.

Data on 13 molecules can be found in US9493478B2, “Fused ring compound containing furan or salt thereof and pharmaceutical composition comprising same” (YUHAN CORPORATION, priority 2012, dated 2016).

For orientation: IC50 means the concentration needed to halve the response being measured.

PI3Kα (p110α/p85α)(h), sequence (P42336 whole entry): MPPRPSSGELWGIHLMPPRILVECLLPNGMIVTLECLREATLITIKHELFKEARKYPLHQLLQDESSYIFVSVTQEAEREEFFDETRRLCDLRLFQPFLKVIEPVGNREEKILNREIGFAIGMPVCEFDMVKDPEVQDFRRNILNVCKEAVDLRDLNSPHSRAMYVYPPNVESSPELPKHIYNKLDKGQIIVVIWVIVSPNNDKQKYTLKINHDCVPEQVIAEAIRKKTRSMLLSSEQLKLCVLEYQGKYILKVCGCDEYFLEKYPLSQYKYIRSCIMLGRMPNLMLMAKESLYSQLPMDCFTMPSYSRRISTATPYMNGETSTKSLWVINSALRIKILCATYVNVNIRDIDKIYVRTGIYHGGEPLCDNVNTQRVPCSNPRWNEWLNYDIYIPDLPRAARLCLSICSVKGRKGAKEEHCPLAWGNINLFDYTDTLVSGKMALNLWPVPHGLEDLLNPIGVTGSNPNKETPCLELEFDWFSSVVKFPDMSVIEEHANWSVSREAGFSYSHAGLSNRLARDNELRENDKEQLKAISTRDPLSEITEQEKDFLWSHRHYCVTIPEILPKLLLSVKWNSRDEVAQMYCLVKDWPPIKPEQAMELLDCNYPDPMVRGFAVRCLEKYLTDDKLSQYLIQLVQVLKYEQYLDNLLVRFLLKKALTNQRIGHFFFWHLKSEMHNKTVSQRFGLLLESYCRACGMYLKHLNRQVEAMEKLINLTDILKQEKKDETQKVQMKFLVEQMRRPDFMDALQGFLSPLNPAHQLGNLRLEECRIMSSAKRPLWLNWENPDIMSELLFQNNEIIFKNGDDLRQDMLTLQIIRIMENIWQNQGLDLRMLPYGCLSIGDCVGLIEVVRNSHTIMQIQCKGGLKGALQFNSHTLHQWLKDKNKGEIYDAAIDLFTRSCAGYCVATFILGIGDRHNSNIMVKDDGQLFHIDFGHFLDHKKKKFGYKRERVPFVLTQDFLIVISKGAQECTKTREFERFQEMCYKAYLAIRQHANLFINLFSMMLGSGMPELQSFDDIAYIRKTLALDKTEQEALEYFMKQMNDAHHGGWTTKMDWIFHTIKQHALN
PI3Kα (p110α/p85α)(h), sequence (P27986 whole entry partner): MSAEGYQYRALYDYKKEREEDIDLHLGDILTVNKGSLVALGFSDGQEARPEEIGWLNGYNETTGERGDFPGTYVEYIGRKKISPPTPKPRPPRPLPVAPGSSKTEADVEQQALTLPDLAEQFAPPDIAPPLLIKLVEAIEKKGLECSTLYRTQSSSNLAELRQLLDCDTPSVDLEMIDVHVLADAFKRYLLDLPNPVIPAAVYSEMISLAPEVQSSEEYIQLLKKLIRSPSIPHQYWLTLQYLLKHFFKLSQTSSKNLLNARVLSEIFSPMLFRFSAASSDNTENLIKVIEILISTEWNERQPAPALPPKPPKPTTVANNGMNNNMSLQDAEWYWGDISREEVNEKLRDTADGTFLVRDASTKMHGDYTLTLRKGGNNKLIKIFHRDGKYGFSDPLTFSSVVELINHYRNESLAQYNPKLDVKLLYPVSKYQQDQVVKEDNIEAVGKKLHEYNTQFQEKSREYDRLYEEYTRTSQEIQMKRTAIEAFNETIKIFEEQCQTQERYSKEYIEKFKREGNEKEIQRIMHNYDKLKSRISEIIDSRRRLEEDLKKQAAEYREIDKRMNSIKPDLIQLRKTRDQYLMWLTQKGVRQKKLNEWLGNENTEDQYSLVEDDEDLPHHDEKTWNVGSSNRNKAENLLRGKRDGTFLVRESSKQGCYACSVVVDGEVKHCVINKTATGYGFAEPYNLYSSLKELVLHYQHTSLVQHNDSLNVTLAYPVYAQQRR
PI3Kγ (p120γ)(h), sequence (P48736 whole entry): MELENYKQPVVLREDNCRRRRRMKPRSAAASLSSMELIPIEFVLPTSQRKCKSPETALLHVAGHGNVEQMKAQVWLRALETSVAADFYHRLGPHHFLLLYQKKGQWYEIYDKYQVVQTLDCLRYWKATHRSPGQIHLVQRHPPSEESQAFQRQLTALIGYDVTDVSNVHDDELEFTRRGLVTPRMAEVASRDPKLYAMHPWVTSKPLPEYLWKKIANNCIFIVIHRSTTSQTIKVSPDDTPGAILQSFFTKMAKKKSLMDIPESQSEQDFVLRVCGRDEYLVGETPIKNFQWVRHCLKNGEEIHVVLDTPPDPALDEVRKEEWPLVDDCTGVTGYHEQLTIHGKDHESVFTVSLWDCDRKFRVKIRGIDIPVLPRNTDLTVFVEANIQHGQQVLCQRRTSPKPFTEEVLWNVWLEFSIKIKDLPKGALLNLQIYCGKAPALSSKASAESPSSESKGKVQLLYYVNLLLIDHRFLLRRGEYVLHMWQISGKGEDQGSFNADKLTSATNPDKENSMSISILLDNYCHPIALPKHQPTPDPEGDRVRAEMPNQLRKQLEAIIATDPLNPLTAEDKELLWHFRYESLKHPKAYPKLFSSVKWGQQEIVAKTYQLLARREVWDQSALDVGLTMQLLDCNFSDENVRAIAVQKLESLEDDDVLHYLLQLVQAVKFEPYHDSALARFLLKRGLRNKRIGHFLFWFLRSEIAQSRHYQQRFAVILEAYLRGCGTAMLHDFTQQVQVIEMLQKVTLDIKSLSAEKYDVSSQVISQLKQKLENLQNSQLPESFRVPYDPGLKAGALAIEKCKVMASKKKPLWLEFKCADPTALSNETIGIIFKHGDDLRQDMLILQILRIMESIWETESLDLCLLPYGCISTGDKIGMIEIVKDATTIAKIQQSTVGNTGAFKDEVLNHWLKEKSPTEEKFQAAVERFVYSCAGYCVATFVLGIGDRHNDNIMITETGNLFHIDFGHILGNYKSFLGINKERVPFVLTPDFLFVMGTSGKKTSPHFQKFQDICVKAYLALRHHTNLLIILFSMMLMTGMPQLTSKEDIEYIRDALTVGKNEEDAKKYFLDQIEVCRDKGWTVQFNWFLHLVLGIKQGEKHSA
PI3K β (p110β/p85α)(h), sequence (P42338 whole entry): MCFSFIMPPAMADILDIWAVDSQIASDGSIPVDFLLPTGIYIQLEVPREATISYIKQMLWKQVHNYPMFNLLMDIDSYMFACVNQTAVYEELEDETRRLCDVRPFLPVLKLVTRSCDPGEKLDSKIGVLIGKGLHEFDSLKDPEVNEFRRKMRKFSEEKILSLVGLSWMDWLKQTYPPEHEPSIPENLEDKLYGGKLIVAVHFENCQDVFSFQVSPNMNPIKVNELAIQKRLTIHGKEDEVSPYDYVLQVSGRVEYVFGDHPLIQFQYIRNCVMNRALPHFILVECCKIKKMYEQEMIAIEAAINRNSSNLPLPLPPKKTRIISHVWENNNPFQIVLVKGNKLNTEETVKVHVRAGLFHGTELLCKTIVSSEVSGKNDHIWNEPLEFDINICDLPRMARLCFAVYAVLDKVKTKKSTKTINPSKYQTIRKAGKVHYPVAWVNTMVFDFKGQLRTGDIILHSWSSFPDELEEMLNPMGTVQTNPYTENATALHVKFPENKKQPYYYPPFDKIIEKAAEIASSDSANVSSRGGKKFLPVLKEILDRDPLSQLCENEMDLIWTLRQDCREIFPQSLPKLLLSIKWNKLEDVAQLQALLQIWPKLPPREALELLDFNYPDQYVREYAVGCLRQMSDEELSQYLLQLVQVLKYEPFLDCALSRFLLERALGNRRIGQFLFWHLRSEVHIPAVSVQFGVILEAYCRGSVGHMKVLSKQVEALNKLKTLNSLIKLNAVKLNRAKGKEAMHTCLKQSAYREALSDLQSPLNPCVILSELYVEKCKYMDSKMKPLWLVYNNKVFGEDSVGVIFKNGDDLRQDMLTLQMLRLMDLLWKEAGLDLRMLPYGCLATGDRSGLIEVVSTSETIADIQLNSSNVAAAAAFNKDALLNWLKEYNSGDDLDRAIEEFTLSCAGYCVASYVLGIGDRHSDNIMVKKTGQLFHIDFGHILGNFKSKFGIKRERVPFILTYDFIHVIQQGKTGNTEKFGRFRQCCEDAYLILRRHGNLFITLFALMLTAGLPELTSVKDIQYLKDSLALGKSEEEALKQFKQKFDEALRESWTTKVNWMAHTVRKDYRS
PI3K β (p110β/p85α)(h), sequence (P27986 whole entry partner): as the sequence (P27986 whole entry partner) above
PI3Kδ (p110δ/p85α)(h), sequence (O00329 whole entry): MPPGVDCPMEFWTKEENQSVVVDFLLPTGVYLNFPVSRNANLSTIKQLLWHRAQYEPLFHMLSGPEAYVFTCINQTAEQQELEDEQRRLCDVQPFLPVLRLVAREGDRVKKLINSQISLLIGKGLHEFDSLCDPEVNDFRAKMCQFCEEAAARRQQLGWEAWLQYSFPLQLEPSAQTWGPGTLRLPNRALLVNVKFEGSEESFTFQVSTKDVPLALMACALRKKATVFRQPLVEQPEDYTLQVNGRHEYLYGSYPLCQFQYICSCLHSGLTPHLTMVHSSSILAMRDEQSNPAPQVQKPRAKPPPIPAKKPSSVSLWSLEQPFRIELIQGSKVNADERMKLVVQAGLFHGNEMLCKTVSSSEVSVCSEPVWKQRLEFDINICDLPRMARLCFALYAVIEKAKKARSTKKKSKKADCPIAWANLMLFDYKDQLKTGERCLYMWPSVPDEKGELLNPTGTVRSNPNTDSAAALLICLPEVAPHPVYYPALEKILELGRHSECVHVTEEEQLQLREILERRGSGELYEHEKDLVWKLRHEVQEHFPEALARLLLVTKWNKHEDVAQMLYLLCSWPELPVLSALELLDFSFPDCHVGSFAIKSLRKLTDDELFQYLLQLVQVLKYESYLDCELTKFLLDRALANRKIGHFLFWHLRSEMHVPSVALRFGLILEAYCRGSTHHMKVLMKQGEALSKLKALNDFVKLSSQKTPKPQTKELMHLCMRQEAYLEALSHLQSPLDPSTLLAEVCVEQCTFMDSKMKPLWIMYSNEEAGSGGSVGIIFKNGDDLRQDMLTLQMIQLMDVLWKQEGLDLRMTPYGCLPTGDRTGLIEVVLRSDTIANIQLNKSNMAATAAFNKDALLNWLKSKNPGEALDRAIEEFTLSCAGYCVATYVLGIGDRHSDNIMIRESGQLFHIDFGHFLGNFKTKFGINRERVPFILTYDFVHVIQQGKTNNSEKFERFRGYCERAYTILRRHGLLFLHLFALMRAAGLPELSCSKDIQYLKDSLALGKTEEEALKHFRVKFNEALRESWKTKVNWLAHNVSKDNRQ
PI3Kδ (p110δ/p85α)(h), sequence (P27986 whole entry partner): as the sequence (P27986 whole entry partner) above

For `CSc1ccc(-c2cncc3cc(/C=C4\SC(=O)NC4=O)oc23)cn1` [Example 41, (Z)-5-([7-{6-(Methylthio)pyridin-3-yl}furo[3,2-c]pyridin-2-yl]methylene)thiazolidine-2,4-dione], the 50% inhibitory concentration (IC50) in test [1] stood at 12 nM; in test [2], 100 nM; in test [3] it was 322 nM; in test [4], 13 nM.
On to `CCOc1ccc(-c2cncc3cc(/C=C4\SC(=O)NC4=O)oc23)cc1Cl` [Example 51, (Z)-5-[{7-(3-Chloro-4-ethoxyphenyl)furo[3,2-c]pyridin-2-yl}methylene]thiazolidine-2,4-dione], for which the 50% inhibitory concentration (IC50) in test [1] was 5 nM; in test [2] it was > 10000 nM; in test [3] it was > 10000 nM; in test [4], 12 nM.
In the case of `COc1c(C)cc(-c2cncc3cc(/C=C4\SC(=O)NC4=O)oc23)cc1C` [Example 73, (Z)-5-[{7-(4-Methoxy-3,5-dimethylphenyl)furo[3,2-c]pyridin-2-yl}methylene]thiazolidine-2,4-dione], the IC50 in test [1] was 10 nM; in test [2] it was > 10000 nM; in test [3], > 10000 nM; in test [4], 10 nM.
For `COc1ccc(-c2cncc3cc(/C=C4\SC(=O)NC4=O)oc23)cc1C(F)(F)F` [Example 90, (Z)-5-([7-{4-Methoxy-3-(trifluoromethyl)phenyl}furo[3,2-c]pyridin-2-yl]methylene)thiazolidine-2,4-dione], the IC50 in test [1] stood at 3 nM; in test [2] it was 3570 nM; in test [3], 6250 nM; in test [4], 5 nM.
For `CCOc1ccc(-c2cncc3cc(/C=C4\SC(=O)NC4=O)oc23)cc1C(F)(F)F` [Example 94, (Z)-5-([7-{4-Ethoxy-3-(trifluoromethyl)phenyl}furo[3,2-c]pyridin-2-yl]methylene)thiazolidine-2,4-dione], the IC50 in test [1] is 6 nM; in test [2], > 10000 nM; in test [3], > 10000 nM; in test [4], 8 nM.
Turning to `O=C1NC(=O)/C(=C/c2cc3cncc(C#Cc4ccccc4)c3o2)S1` [Example 125, (Z)-5-[{7-(Phenylethynyl)furo[3,2-c]pyridin-2-yl}methylene]thiazolidine-2,4-dione], the IC50 in test [1] was 58 nM; in test [2] it was > 10000 nM; in test [3] it was > 10000 nM; in test [4], 12 nM.
As for `O=C1NC(=O)/C(=C/c2cc3cncc(-c4cccc(CN5CCCCC5)c4)c3o2)S1` [Example 132, (Z)-5-([7-{3-(Piperidin-1-ylmethyl)phenyl}furo[3,2-c]pyridin-2-yl]methylene)thiazolidine-2,4-dione], the IC50 in test [1] is 22 nM; in test [2], 337 nM; in test [3], 98 nM; in test [4], 95 nM.
The corresponding values for `CN1CCN(Cc2ccc(-c3cncc4cc(/C=C5\SC(=O)NC5=O)oc34)cc2)CC1` [Example 134, (Z)-5-{(7-[4-{(4-Methylpiperazin-1-yl)methyl}phenyl]furo[3,2-c]pyridin-2-yl)methylene}thiazolidine-2,4-dione] are 95 nM, > 1000 nM, 54 nM and 344 nM.
The like results for `O=C1NC(=O)/C(=C/c2cc3cncc(-c4cccc(NS(=O)(=O)c5ccccc5)c4)c3o2)S1` [Example 141, (Z)—N-(3-[2-{(2,4-Dioxothiazolidin-5-ylidene)methyl}furo[3,2-c]pyridin-7-yl]phenyl)benzenesulfonamide] were, in that order, 21 nM, 23 nM, 51 nM and 108 nM.
As to `O=C1NC(=S)S/C1=C\c1cc2cncc(-c3ccc(F)nc3)c2o1` [Example 153, (Z)-5-[{7-(6-Fluoropyridin-3-yl)furo[3,2-c]pyridin-2-yl}methylene]-2-thioxothiazolidin-4-one], the IC50 came out at 10 nM in test [1], 115 nM in test [2], 246 nM in test [3] and 16 nM in test [4].
Consider `COc1ccc(-c2cncc3cc(/C=C4\SC(=S)NC4=O)oc23)cc1F` [Example 161, (Z)-5-[{7-(3-Fluoro-4-methoxyphenyl)furo[3,2-c]pyridin-2-yl}methylene]-2-thioxothiazolidin-4-one], for which the IC50 in test [1] is 13 nM; in test [2], > 10000 nM; in test [3] it was 191 nM; in test [4], 17 nM.
The corresponding values for `O=C1NC(=S)S/C1=C\c1cc2cncc(-c3ccc4c(c3)CCO4)c2o1` [Example 187, (Z)-5-[{7-(2,3-Dihydrobenzofuran-5-yl)furo[3,2-c]pyridin-2-yl}methylene]-2-thioxothiazolidin-4-one] are 5 nM, > 10000 nM, > 10000 nM and 10 nM.
`Cc1cc(-c2cncc3cc(/C=C4\SC(=S)NC4=O)oc23)cnc1F` [Example 195, (Z)-5-[7-(6-Fluoro-5-methylpyridin-3-yl)-furo[3,2-c]pyridin-2-ylmethylene]-2-thioxothiazolidin-4-one]: the half-inhibitory concentration (IC50) in test [1] stood at 2 nM; in test [2] it was 156 nM; in test [3], 1900 nM; in test [4], 3 nM.
